Measurements: ChEMBL document CHEMBL1201862, “PubChem BioAssay data set” (2004)
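Method: 48-hour compound exposure of cells in 96-well plates, five concentrations, linear interpolation of endpoints. Abbreviation: GI50, concentration required for 50% inhibition of growth.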 The source made the active and inactive calls. No stated cut-off is given here; in the data, active = GI50 up to about 1.1 µM and inactive = higher.

How the values were obtained:
Test in all cases: NCI tumour cell line growth inhibition, 48 h
UACC-257 = tested on: UACC-257
IGROV-1 = tested on: IGROV-1
SK-OV-3 = tested on: SK-OV-3
T47D = tested on: T47D
CCRF-CEM = tested on: CCRF-CEM
786-0 = tested on: 786-0
SN12C = tested on: SN12C
HT-29 = tested on: HT-29
Hs-578T = tested on: Hs-578T
SK-MEL-5 = tested on: SK-MEL-5
PC-3 = tested on: PC-3
SNB-19 = tested on: SNB-19
SF-295 = tested on: SF-295
EKVX = tested on: EKVX
UO-31 = tested on: UO-31
MDA-MB-231 = tested on: MDA-MB-231
HCC 2998 = tested on: HCC 2998
Malme-3M = tested on: Malme-3M
HOP-92 = tested on: HOP-92
NCI/ADR-RES = tested on: NCI/ADR-RES

Measured: GI50

Cc1nn(C(=O)Cc2ccccc2)c2c1C(c1ccc(/C=C/c3ccccc3)cc1)SC(=N)N2 (configuration not stated)
inactive: UACC-257 > 100 µM | IGROV-1 > 100 µM | SK-OV-3 > 100 µM | T47D > 100 µM | CCRF-CEM > 100 µM | 786-0 > 100 µM | SN12C > 100 µM | HT-29 > 100 µM | Hs-578T > 100 µM | SK-MEL-5 > 100 µM | PC-3 > 100 µM | SNB-19 > 100 µM | SF-295 > 100 µM | EKVX > 100 µM | UO-31 > 100 µM | MDA-MB-231 > 100 µM | HCC 2998 > 100 µM | Malme-3M > 100 µM

Cc1c(O)c(OC2OC(CO)C(O)C(O)C2O)cc2c1C=C[C@@H]1[C@@]2(C)C(=O)C[C@]2(C)[C@@H]([C@@](C)(O)C(O)/C=C/C(C)(C)O)[C@H](O)C[C@@]12C (some centres not stated)
inactive: UACC-257 > 100 µM | IGROV-1 > 100 µM | SK-OV-3 > 100 µM | T47D > 100 µM | CCRF-CEM > 100 µM | 786-0 > 100 µM | SN12C > 100 µM | HT-29 > 100 µM | SK-MEL-5 > 100 µM | PC-3 > 100 µM | SNB-19 > 100 µM | SF-295 > 100 µM | EKVX > 100 µM | HOP-92 > 100 µM | UO-31 > 100 µM | MDA-MB-231 > 100 µM | HCC 2998 > 100 µM | Malme-3M > 100 µM | NCI/ADR-RES > 100 µM

CCCCCC#CCOC(=O)C(=[N+]=[N-])P(=O)(c1ccccc1)c1ccccc1
inactive: UACC-257 > 10 µM | IGROV-1 > 10 µM | SK-OV-3 > 10 µM | T47D > 10 µM | 786-0 > 10 µM | SN12C > 10 µM | HT-29 > 10 µM | Hs-578T > 10 µM | SK-MEL-5 > 10 µM | PC-3 > 10 µM | SNB-19 > 10 µM | SF-295 > 10 µM | EKVX > 10 µM | HOP-92 > 10 µM | UO-31 > 10 µM | MDA-MB-231 > 10 µM | HCC 2998 > 10 µM | Malme-3M > 10 µM

Cc1nn(C)c2nc3ccc(Cl)cc3c(-c3ccccc3)c12
inactive: UACC-257 > 100 µM | SK-OV-3 > 100 µM | T47D > 100 µM | CCRF-CEM > 100 µM | 786-0 > 100 µM | SN12C > 100 µM | HT-29 > 100 µM | PC-3 > 100 µM | SNB-19 > 100 µM | SF-295 > 100 µM | EKVX > 100 µM | HOP-92 > 100 µM | UO-31 > 100 µM | MDA-MB-231 > 100 µM | HCC 2998 > 100 µM | Malme-3M > 100 µM | NCI/ADR-RES > 100 µM
